The subject of assay [1] is verapamil binding site of the L-type calcium channel. The experiment in a line: Inhibition of [3H]D888 binding to the verapamil binding site of the L-type calcium channel (rat cerebral cortex membranes). Conditions: 10 μmol/l of test substance. The procedure:
200-250 g male Sprague-Dawley rats are sacrificed by decapitation. Cerebral cortices are quickly dissected on ice and homogenized in a 20 mmol/l Tris-HCl (pH 7.4) buffer containing 250 mmol/l sucrose (buffer A). The homogenate is centrifuged at 30,000 g for 15 min at 4° C. The resulting crude membrane pellet is resuspended in a 50 mmol/l Tris-HCl (pH 7.4) buffer and incubated 15 min at 37° C. before being centrifuged at 30,000×g for 15 min at 4° C. After two more washes under the same conditions, the final pellet is resuspended in buffer A at a protein concentration ranging from 15 to 25 mg/ml and stored in liquid nitrogen.
Binding experiments are essentially performed according to Reynolds J. et al., J. Pharmacol. Exp. Ther. (1986), 237, 731-738. (1986) with slight modifications.
Membranes (120-175 μg/assay) are incubated at 25° C. for 60 min in 0.5 ml of a 50 mmol/l Tris-HCl buffer (pH 7.4) containing 2 mmol/l MgCl2, 0.2 to 0.4×10-9 mol/l of [^3H]D888 (85 Ci/mmol; Amersham, Belgium) and 10 μmol/l of the test substance. The non specific binding (NSB) is defined as the residual binding observed in the presence 10 μM verapamil. Membrane-bound and -free radioligands are separated by rapid filtration through glass fiber filters (equivalent to Whatman GF/C or GF/B; VEL, Belgium) presoaked in 0.1% polyethyleneimine to reduce non specific binding. Samples and filters are rinsed by at least 6 ml of 50 mmol/l Tris-HCl (pH 7.4) buffer. […] The radioactivity trapped onto the filters is counted by liquid scintillation in a β-counter.
The inhibition of the radioligand specific binding is calculated as follows: [formula] • where BI and Bo represent the binding observed in the presence and absence of the test substance respectively; and • BNS is the non specific binding.
Data analysis is performed by a computerized non linear curve fitting method using a set of equations describing several binding models assuming competitive interactions between ligands (Weiland G. A. and P. B. Molinoff Life Science (1981), 29, 313-330; Molinoff P. et al. (1981) Life Sci., 29, 427-443).

Assay [2] deals with NK1 receptors (Homo sapiens, UniProt P25103). The experiment in a line: Binding of [4,5-3H-Leu10] substance P to human recombinant NK1 receptors expressed in CHO cell membranes. Details: host or cells: CHO cells. Conditions: pIC50 = -log IC50, concentration inhibiting by 50% the specific binding of [4,5-3H] substance P; tested as the free base/salt given in c1. The procedure: The following test was designed to assess the affinity of test substances for human recombinant NK1 receptors expressed in Chinese Hamster Ovarian (CHO) cells.
CHO cells expressing the human recombinant NK1 receptor are used. The cells were obtained from Euroscreen (Brussels, Belgium).
Cells expressing the human NK1 receptor are routinely cultured in 175 cm2 flasks containing 75 ml of medium F12 (Ham) enriched with 2 mmol/l L-glutamine, 100 IU/ml penicilline, 100 μg/ml streptomycine, 1% sodium pyruvate, 2.5 μg/ml fungizone amphotericin B, 400 μg/ml geneticin and supplemented with 10% foetal calf serum. […] When subcultured, the cells are seeded at a concentration of 50,000 cells/cm2.
Confluent cells are gently scraped and resuspended in 25 ml of phosphate buffered saline without calcium and magnesium. The cellular suspension is centrifuged at 1500×g for 3 min (4° C.). The cell pellet is homogenized in a 15 mmol/l Tris-HCl (pH 7.5) buffer, 2 mmol/l MgCl2, 0.3 mmol/l EDTA, 1 mmol/l EGTA. The crude membrane fraction is collected by two consecutive centrifugation steps at 40,000×g for 25 min (4° C.). The final pellet is resuspended in 20 mmol/l Tris-HCl (pH 7.4), 250 mmol/l sucrose buffer at a protein concentration ranging from 2 to 6 mg/ml and stored in liquid nitrogen. • 1.2.2. Test Design
The inhibition constant (Ki) is determined using increasing concentrations of the test substance. The concentration range usually encompasses 6 log units with variable steps (0.3 to 1 log). Assays are performed in mono- or duplicate.
Membranes are incubated at 25° C. for 60 min in 0.5 ml of a 50 mmol/l Tris-HCl buffer (pH 7.4) containing 2 mmol/l MgCl2, 100 μg/ml bacitracine, 0.1 to 0.4×10^−9 mol/l of [4,5^3H-Leu^10] substance P (specific activity>100 Ci/mmol) and increasing concentrations of the test substance. […] Membrane-bound and free radioligands are separated by rapid filtration through glass fiber filters (equivalent to Whatman GF/C or GF/B; VEL, Belgium) presoaked in 0.1% polyethyleneimine to reduce non specific binding. Samples and filters are rinsed by at least 6 ml of 50 mmol/l Tris-HCl (pH 7.4) buffer.
Initial values for the different variables may be provided by the experimenter.

Each structure is given as a SMILES string.

This is an account of results in patent publication US6916797B2, “α-arylethylpiperazine derivatives as neurokinin antagonists” (UCB, S.A., priority 2000, dated 2005).

NK1 receptors, sequence (P25103 whole entry): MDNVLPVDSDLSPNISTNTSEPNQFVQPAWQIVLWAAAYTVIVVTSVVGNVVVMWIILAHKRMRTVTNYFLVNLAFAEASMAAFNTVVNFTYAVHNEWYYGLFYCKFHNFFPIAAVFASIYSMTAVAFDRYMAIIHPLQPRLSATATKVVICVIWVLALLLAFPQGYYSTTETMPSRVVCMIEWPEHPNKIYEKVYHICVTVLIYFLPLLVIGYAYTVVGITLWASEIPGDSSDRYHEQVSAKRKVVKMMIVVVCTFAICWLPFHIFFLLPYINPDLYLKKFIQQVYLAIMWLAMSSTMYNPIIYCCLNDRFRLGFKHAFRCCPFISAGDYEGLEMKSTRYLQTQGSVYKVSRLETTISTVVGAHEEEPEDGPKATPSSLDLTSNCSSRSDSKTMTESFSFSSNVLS

A word on the IC50: it is the concentration at which inhibition is half-maximal. As to `O=C(O)C(c1ccccc1)N1CCN([C@H](COCc2cc(C(F)(F)F)cc(C(F)(F)F)c2)c2ccccc2)CC1` (mixture of isomers) [Compound 244], in assay [1], the “% inhibition of [3H]D888 binding to the verapamil binding site of the L-type calcium channel” value (from here on “% inhibition … of the L-type calcium channel”) was “−+ (+: inhibition comprised between 20 and 50%)”. For the same molecule, the IC50 in assay [2] was 39.8 nM.
For `O=C(O)CCCCCN1CCN(C(COCc2cc(C(F)(F)F)cc(C(F)(F)F)c2)c2ccccc2)CC1` (racemic) [Compound 234, 6-{4-[2-(3,5-Bis-trifluoromethyl-benzyloxy)-1-phenyl-ethyl]-piperazin-1-yl}-hexanoic acid], the “% inhibition … of the L-type calcium channel” value in assay [1] was 0 (0: inhibition < 20%). Moreover, the IC50 in assay [2] is 15.8 nM.
In the case of `O=C(O)c1ccccc1CN1CCN(C(COCc2cc(C(F)(F)F)cc(C(F)(F)F)c2)c2ccccc2)CC1` (racemic) [Compound 241], in assay [1], the “% inhibition … of the L-type calcium channel” value was “+ (+: inhibition comprised between 20 and 50%)”. Besides, the IC50 in assay [2] is 7.94 nM.
With `O=C(O)CN1CCN(C(COCc2cc(C(F)(F)F)cc(C(F)(F)F)c2)c2ccc(Br)cc2)CC1` (racemic) [Compound 250], the “% inhibition … of the L-type calcium channel” value in assay [1] was “+ (+: inhibition comprised between 20 and 50%)”. Moreover, the IC50 in assay [2] is 79.4 nM.
On to `CNC(=O)CN1CCN(C(COCc2cc(C(F)(F)F)cc(C(F)(F)F)c2)c2ccccc2)CC1` (racemic) [Compound 292, 2-{4-[2-(3,5-Bis-trifluoromethyl-benzyloxy)-1-phenyl-ethyl]-piperazin-1-yl}-N-methyl-acetamide], for which the “% inhibition … of the L-type calcium channel” value in assay [1] was “+ (+: inhibition comprised between 20 and 50%)”. Further, the IC50 in assay [2] is 15.8 nM.
On to `CC(OCC(c1ccccc1)N1CCN(CC(=O)O)CC1)c1cc(C(F)(F)F)cc(C(F)(F)F)c1` (single isomer, unassigned) [Compound 273], for which the “% inhibition … of the L-type calcium channel” value in assay [1] is 0 (0: inhibition < 20%). Further, in assay [2], the IC50 was 3.16 nM.
As to `CC(OCC(c1ccccc1)N1CCN(CC(=O)O)CC1)c1cc(C(F)(F)F)cc(C(F)(F)F)c1` (single isomer, unassigned) [Compound 274], in assay [1], the “% inhibition … of the L-type calcium channel” value is 0 (0: inhibition < 20%). Moreover, the IC50 in assay [2] is 12.6 nM.
In the case of `O=C(O)CN1CCN([C@@H](COCc2cc(C(F)(F)F)cc(C(F)(F)F)c2)c2ccccc2)CC1` [Compound 231], the “% inhibition … of the L-type calcium channel” value in assay [1] was 0 (0: inhibition < 20%). Further, in assay [2], the half-maximal inhibitory concentration (IC50) is 79.4 nM.
Consider `C[C@@H](OC[C@@H](c1ccccc1)N1CCN(CC(=O)O)CC1)c1cc(C(F)(F)F)cc(C(F)(F)F)c1` [Compound 277], for which the “% inhibition … of the L-type calcium channel” value in assay [1] is recorded as 0 (0: inhibition < 20%). Also, the IC50 in assay [2] is 10 nM.
As to `N#CCN1CCN([C@H](COCc2cc(C(F)(F)F)cc(C(F)(F)F)c2)c2ccccc2)CC1` [Compound 291, (S)-{4-[2-(3,5-Bis-trifluoromethyl-benzyloxy)-1-phenyl-ethyl]-piperazin-1-yl}-acetonitrile], the “% inhibition … of the L-type calcium channel” value in assay [1] was 0 (0: inhibition < 20%). Moreover, the IC50 in assay [2] was 25.1 nM.
Regarding `CC(OCC(c1ccccc1)N1CCN(CCCCc2nnn[nH]2)CC1)c1cc(C(F)(F)F)cc(C(F)(F)F)c1` (stereo not shown) [Compound 302], the “% inhibition … of the L-type calcium channel” value in assay [1] was “+ (+: inhibition comprised between 20 and 50%)”. Besides, the IC50 in assay [2] was 3.98 nM.
As for `CS(=O)(=O)NC(=O)COCCN1CCN(C(COCc2cc(C(F)(F)F)cc(C(F)(F)F)c2)c2ccccc2)CC1` (stereo not shown) [Compound 305, N-[(2-{4-[2-(3,5-Bis-trifluoromethyl-benzyloxy)-1-phenyl-ethyl]-piperazin-1-yl}-ethoxy)-acetyl]-methanesulfonamide], the “% inhibition … of the L-type calcium channel” value in assay [1] was 0 (0: inhibition < 20%). For the same molecule, in assay [2], the IC50 is 79.4 nM.
`O=C(COCCN1CCN(C(COCc2cc(C(F)(F)F)cc(C(F)(F)F)c2)c2ccccc2)CC1)NS(=O)(=O)c1ccccc1` (stereo not shown) [Compound 306, N-[(2-{4-[2-(3,5-Bis-trifluoromethyl-benzyloxy)-1-phenyl-ethyl]-piperazin-1-yl}-ethoxy)-acetyl]-benzenesulfonamide]: in assay [1], the “% inhibition … of the L-type calcium channel” value is “+ (+: inhibition comprised between 20 and 50%)”. Moreover, the IC50 in assay [2] is 31.6 nM.
On to `Cc1ccc(S(=O)(=O)NC(=O)OCCN2CCN(C(COCc3cc(C(F)(F)F)cc(C(F)(F)F)c3)c3ccccc3)CC2)cc1` (stereo not shown) [Compound 307, N-p-toluenesulfonic-carbamic acid 2-{4-[2-(3,5-bis-trifluoromethyl-benzyloxy)-1-phenyl-ethyl]-piperazin-1-yl}-ethyl ester], for which the “% inhibition … of the L-type calcium channel” value in assay [1] is “+ (+: inhibition comprised between 20 and 50%)”. In addition, the IC50 in assay [2] was 15.8 nM.
As to `O=C(O)C1CCC(N2CCN(C(COCc3cc(C(F)(F)F)cc(C(F)(F)F)c3)c3ccccc3)CC2)CC1` (stereo not drawn) [Compound 313, cis- or trans-4-{4-[2-(3,5-Bis-trifluoromethyl-benzyloxy)-1-phenyl-ethyl]-piperazin-1-yl}-cyclohexanecarboxylic acid], the “% inhibition … of the L-type calcium channel” value in assay [1] is recorded as 0 (0: inhibition < 20%). The IC50 in assay [2] is 15.8 nM.
Take `N#Cc1ccc(C(COCc2cc(C(F)(F)F)cc(C(F)(F)F)c2)N2CCN(CC(=O)O)CC2)cc1` (stereo not shown) [Compound 320, {4-[2-(3,5-Bis-trifluoromethyl-benzyloxy)-1-(4-cyano-phenyl)-ethyl]-piperazin-1-yl}-acetic acid]: in assay [1], the “% inhibition … of the L-type calcium channel” value is reported as 0 (0: inhibition < 20%).
